Reference: patent US6162815A, “RXR-agonist polycyclic aromatic compounds, pharmaceutical/cosmetic compositions comprising said compound and uses thereof” (Centre International de Recherches Dermatologiques Galderma, priority 1994, dated 2000)

Experiments:
RXR [1] = assay: RXR transactivation test; format: cell-based; conditions: for RXR transactivation test (%): tested compound at 10 μM, relative to control 6-[1-(3,5,5,8,8-pentamethyl-5,6,7,8-tetrahydronaphthalen-2-yl)cyclopropyl]nicotinic acid at 10^-8 M; for AC50: read-out: RXR transactivation AC 50
Protocol: We further tested compounds according to the claimed invention to ascertain their activity in assays that identify molecules as RXR-agonists. […] These references are incorporated by reference in their entirety herein.
The percentage values in the Table correspond to the percentage of activities of the tested compound at a concentration of 10 μM. This is relative to a control compound, 6-[1-(3,5,5,8,8-pentamethyl-5,6,7,8-tetrahydronaphthalen-2-yl)cyclopropyl]nicotinic acid, at a concentration of 10^-8 M.

RXR [2] = assay: RXR binding

Row | Ki (RXR [2]) | Structure (SMILES) | RXR transactivation test (%) (RXR [1]) | AC50 (RXR [1])
1 |  | CC1(C)CCC(C)(C)c2cc(Oc3ccc(C(=O)O)cc3)ccc21 [Example 1, 4-(5,6,7,8-tetrahydro-5,5,8,8-tetramethyl-2-naphthyloxy)benzoic acid] | 33% | 
2 |  | CC1(C)CCC(C)(C)c2cc([S+]([O-])c3ccc(C(=O)O)cc3)ccc21 (centres unmarked) [Example 3, 4-(5,6,7,8-tetrahydro-5,5,8,8-tetramethyl-2-naphthylsulfinyl)benzoic acid] | 25% | 
3 |  | CC1(C)CCC(C)(C)c2cc(Nc3ccc(C(=O)O)cc3)ccc21 [Example 5, 4-(5,6,7,8-tetrahydro-5,5,8,8-tetramethyl-2-naphthylamino)benzoic acid] | 21% | 
4 |  | CC1(C)CCC(C)(C)c2cc(Sc3ccc(C(=O)O)s3)ccc21 [Example 6, 5-(5,6,7,8-tetrahydro-5,5,8,8-tetramethyl-2-naphthylthio)-2-thiophenecarboxylic acid] | 39% | 
5 |  | Cc1cc2c(cc1Oc1ccc(C(=O)O)cc1)C(C)(C)CCC2(C)C [Example 7, 4-(3,5,5,8,8-pentamethyl-5,6,7,8-tetrahydro-2-naphthyloxy)benzoic acid] | 48% | 355 nM
6 | 3740 nM | Cc1cc2c(cc1Sc1ccc(C(=O)O)cc1)C(C)(C)CCC2(C)C [Example 8, 4-(3,5,5,8,8-pentamethyl-5,6,7,8-tetrahydro-2-naphthylthio)benzoic acid] | 118% | 300 nM
7 | 2820 nM | CCc1cc2c(cc1Oc1ccc(C(=O)O)cc1)C(C)(C)CCC2(C)C [Example 9, 4-(3-ethyl-5,5,8,8-tetramethyl-5,6,7,8-tetrahydro-2-naphthyloxy)benzoic acid] | 108% | 279 nM
8 | 2480 nM | CC(C)c1cc2c(cc1Oc1ccc(C(=O)O)cc1)C(C)(C)CCC2(C)C [Example 10, 4-(3-isopropyl-5,5,8,8-tetramethyl-5,6,7,8-tetrahydro-2-naphthyloxy)benzoic acid] | 81% | 495 nM
9 | 1130 nM | CC1(C)CCC(C)(C)c2cc(Oc3ccc(C(=O)O)cc3)c(Br)cc21 [Example 13, 4-(3-bromo-5,6,7,8-tetrahydro-5,5,8,8-tetramethyl-2-naphthyloxy)benzoic acid] | 57% | 
10 |  | CCc1cc2c(cc1Oc1ccc(C(=O)O)cc1C)C(C)(C)CCC2(C)C [Example 16, 3-methyl-4-(3-ethyl-5,6,7,8-tetrahydro-5,5,8,8-tetramethyl-2-naphthyloxy)benzoic acid] | 38% | 
11 | 538 nM | Cc1cc2c(cc1Sc1ccc(C(=O)O)cn1)C(C)(C)CCC2(C)C [Example 17, 6-(3,5,5,8,8-pentamethyl-5,6,7,8-tetrahydro-2-naphthylthio)nicotinic acid] | 102% | 48 nM
12 |  | Cc1cc2c(cc1Sc1ccc(C(=O)O)c(Cl)c1)C(C)(C)CCC2(C)C [Example 19, 2-chloro-4-(3,5,5,8,8-pentamethyl-5,6,7,8-tetrahydro-2-naphthylthio)benzoic acid] | 58% | 656 nM
13 | 3950 nM | CCc1cc2c(cc1Sc1ccc(C(=O)O)cc1)C(C)(C)CCC2(C)C [Example 20, 4-(3-ethyl-5,6,7,8-tetrahydro-5,5,8,8-tetramethyl-2-naphthylthio)benzoic acid] | 41% | 
14 |  | Cc1cc2c(cc1Sc1ccc(CO)cc1)C(C)(C)CCC2(C)C [Example 23, 4-(3,5,5,8,8-pentamethyl-5,6,7,8-tetrahydro-2-naphthylthio)benzenemethanol] | 3% | 
15 |  | Cc1cc2c(cc1Sc1ccc(C=O)cc1)C(C)(C)CCC2(C)C [Example 24, 4-(3,5,5,8,8-pentamethyl-5,6,7,8-tetrahydro-2-naphthylthio)benzaldehyde] | 17% | 
16 |  | CCNC(=O)c1ccc(Sc2cc3c(cc2C)C(C)(C)CCC3(C)C)cc1 [Example 25, N-ethyl-4-(3,5,5,8,8-pentamethyl-5,6,7,8-tetrahydro-2-naphthylthio)benzamide] | 15% | 
17 |  | Cc1cc2c(cc1Sc1ccc(C(=O)Nc3ccc(O)cc3)cc1)C(C)(C)CCC2(C)C [Example 26, N-4-hydroxyphenyl-4-(3,5,5,8,8-pentamethyl-5,6,7,8-tetrahydro-2-naphthylthio)benzamide] | 14% | 
